Source: US20120012822A1, “AROMATIC COMPOUND AND METHOD FOR PRODUCING SAME” (KEIO UNIVERSITY, priority 2009, published 2012)

How the values were obtained:
[1] = Solubility in hexane; format: physicochemical
Protocol: Next, 13.5 mg of 5,7,12,14-tetrakis(2-(triethylsilyl)ethyl)pentacene-6,13-dione was added to 51.6 mg of hexane at 22° C., and allowed to completely dissolve.
Next, 9.3 mg of a 1:1 mixture of 4,6,10,12-tetrakis(2-(triethylsilyl)ethyl)anthra[2,3-b : 6,7-b′]dithiophene-5,11-dione and 4,6,10,12-tetrakis(2-(triethylsilyl)ethyl)anthra[2,3-b:7,6-b′]dithiophene-5,11-dione was added to 180.1 mg of hexane at 26° C., and allowed to completely dissolve. The solubility in hexane was 5 wt %.

Molecule `CC[Si](CC)(CC)CCc1c2c(c(CC[Si](CC)(CC)CC)c3ccccc13)C(=O)c1c(c(CC[Si](CC)(CC)CC)c3ccccc3c1CC[Si](CC)(CC)CC)C2=O` [5,7,12,14-tetrakis(2-(triethylsilyl)ethyl)pentacene-6,13-dione] has a solubility in hexane [1] of 26 wt % and a melting point of 171 to 171.5 °C.
